For one data set, the target named is T1, CSBP2 (Homo sapiens, UniProt Q16539).
T1 construct: made in house; host or cells: yeast
In words: CSBP Kinase Assay. As to conditions: yeast-expressed purified CSBP2; 170 uM ATP (Km); T669 peptide substrate; 30° C. for 10 min. In kind it is biochemical. The procedure:
This assay measures the CSBP-catalyzed transfer of ^32P from [a-^32P]ATP to threonine residue in an epidermal growth factor receptor (EGFR)-derived peptide (T669) with the following sequence: […] (residues 661-681). (See Gallagher et al., “Regulation of Stress Induced Cytokine Production by Pyridinyl Imidazoles: Inhibition of CSPB Kinase”, BioOrganic & Medicinal Chemistry, to be published 1996).
Kinase reactions (total volume 30 ul) contain: 25 mM Hepes buffer, pH 7.5; 10 mM MgCl2; 170 uM ATP^(1); 10 uM Na ortho vanadate; 0.4 mM T669 peptide; and 20-80 ng of yeast-expressed purified CSBP2 (see Lee et al., Nature 300, n(72), 739-746 (December 1994)). Compounds (5 ul from [6×] stock^(2)) are pre-incubated with the enzyme and peptide for 20 min on ice prior to starting the reactions with 32P/MgATP. Reactions are incubated at 30° C. for 10 min and stopped by adding 10 ul of 0.3 M phosphoric acid. 32P-labeled peptide is separated on phosphocellulose (Wattman, p81) filters by spotting 30 ul reaction mixture. Filters are washed 3 times with 75 mM phosphoric acid followed by 2 washes with H2O, and counted for 32P.
(1) The Km of CSBP for ATP was determined to be 170 uM. Therefore, compounds screened at the Km value of ATP.
(2) Compounds are usually dissolved in DMSO and are diluted in 25 mM Hepes buffer to get final concentration of DMSO of 0.17%.

1 molecule from patent publication US6362193B1, “Cycloalkenyl substituted compounds” (SmithKline Beecham Corporation, priority 1997, dated 2002) can be followed below.

Molecules are shown by their SMILES. pIC50: −log10 of the molar value.

T1 sequence (Q16539 whole entry): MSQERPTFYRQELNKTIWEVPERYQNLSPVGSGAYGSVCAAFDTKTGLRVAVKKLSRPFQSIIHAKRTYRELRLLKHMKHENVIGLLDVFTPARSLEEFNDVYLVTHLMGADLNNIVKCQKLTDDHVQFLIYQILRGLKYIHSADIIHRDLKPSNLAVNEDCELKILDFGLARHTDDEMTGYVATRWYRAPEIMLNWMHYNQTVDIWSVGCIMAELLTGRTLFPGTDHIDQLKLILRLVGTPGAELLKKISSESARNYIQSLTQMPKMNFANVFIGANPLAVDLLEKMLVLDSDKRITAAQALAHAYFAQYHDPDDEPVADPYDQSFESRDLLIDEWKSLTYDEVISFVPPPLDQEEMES

As to `Nc1nccc(C2=C(c3ccc(F)cc3)CCC2)n1` [Example 1, 1-[4-(2-Aminopyrimidinyl)]-2-(4-fluorophenyl)cyclopenten-1-ene], the melting point – broadly, the temperature, or range, at which the solid turns liquid – was in the range of 134 to 135 °C. On CSBP2, the pIC50 (usually −log10 of the IC50, conventionally taken in molar units) was > 4.30.
